Measurements: US20060167057A1, “Compounds for the treatment of CNS and amyloid associated diseases” (priority 2004, published 2006)

Target: T1, L1 transport system (large neutral amino acid carrier, L1-system carrier) (Rattus norvegicus, UniProt Q63016)
T1 construct: functionality of their endogenous transporters such as the L1-system carrier; endogenous in cells; host or cells: rat primary cerebrovascular (brain microcapillary) endothelial cells, RBEC
Test: Competitive binding assay to the brain L1 transport system (L-[U-14C]phenylalanine on rat primary cerebrovascular endothelial cells)
Settings: for Status of Binding: compounds of Example 4, 10^−6, 10^−5 and 10^−4, Δ versus phenylalanine
Procedure, shortened: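 Cells were primary cerebral microvascular endothelial cells from cortices of 24-day-old rats, isolated by collagenase/DNAse digestion, dextran separation and mesh filtration.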

T1 sequence (Q63016 whole entry): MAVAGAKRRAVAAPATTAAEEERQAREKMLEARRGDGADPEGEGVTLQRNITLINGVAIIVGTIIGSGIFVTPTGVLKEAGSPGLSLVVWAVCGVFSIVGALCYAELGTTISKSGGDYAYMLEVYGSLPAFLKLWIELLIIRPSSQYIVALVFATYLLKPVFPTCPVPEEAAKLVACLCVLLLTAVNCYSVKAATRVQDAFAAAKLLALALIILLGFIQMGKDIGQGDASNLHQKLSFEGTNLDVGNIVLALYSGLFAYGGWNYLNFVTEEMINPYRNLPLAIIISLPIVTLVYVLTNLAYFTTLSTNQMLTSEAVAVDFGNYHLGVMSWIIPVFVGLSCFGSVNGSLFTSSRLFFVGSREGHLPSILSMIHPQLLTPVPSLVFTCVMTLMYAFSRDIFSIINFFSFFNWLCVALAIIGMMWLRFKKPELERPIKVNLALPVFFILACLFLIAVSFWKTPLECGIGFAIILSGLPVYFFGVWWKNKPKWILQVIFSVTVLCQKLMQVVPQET
T1 sequence (Q794F9 whole entry partner): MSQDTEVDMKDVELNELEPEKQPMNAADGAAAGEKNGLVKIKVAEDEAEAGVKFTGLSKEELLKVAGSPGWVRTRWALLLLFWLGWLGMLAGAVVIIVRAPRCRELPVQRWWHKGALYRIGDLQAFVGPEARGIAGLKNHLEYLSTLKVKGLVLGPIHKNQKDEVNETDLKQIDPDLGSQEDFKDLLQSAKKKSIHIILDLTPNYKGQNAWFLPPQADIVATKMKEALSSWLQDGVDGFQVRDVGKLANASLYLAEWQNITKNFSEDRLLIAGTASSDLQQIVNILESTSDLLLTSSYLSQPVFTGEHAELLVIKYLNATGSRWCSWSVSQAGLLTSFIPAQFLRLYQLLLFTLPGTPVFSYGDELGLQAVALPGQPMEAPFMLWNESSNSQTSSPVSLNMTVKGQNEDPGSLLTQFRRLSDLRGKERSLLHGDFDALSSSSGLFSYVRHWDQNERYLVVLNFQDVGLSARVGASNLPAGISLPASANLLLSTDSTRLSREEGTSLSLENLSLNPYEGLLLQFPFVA

Row | SMILES | Comparison with the Binding of Phenylalanine (10^−4 M) | Comparison with the Binding of Phenylalanine (10^−5 M) | Comparison with the Binding of Phenylalanine (10^−6 M) | Status of Binding
1 | NC(Cc1ccc(-c2ccc(CSc3nc(-c4ccccc4)c(-c4ccccc4)[nH]3)cc2)cc1)C(=O)O (centres unmarked) [Compound 149] | 3 (X > 20 Rank 3) | 3 (X > 20 Rank 3) | 2 (10 < X < 20 Rank 2) | –
2 | Cc1ccnc(SCc2ccc(-c3ccc(CC(N)C(=O)O)cc3)cc2)n1 (centres unmarked) [Compound 151] | 0 (X < 0 Rank 0) | 0 (X < 0 Rank 0) | 2 (10 < X < 20 Rank 2) | –
3 | NC(Cc1ccc(-c2ccc(CSc3nnnn3CC(=O)O)cc2)cc1)C(=O)O (centres unmarked) [Compound 153] | 0 (X < 0 Rank 0) | 0 (X < 0 Rank 0) | 2 (10 < X < 20 Rank 2) | –
4 | NC(Cc1cccc(CSc2ncccn2)n1)C(=O)O (centres unmarked) [Compound 154] | 1 (0 < X < 10 Rank 1) | 0 (X < 0 Rank 0) | 0 (X < 0 Rank 0) | –
5 | NC(Cc1ccc(-c2ccc(CSc3nc4ccccc4c(=O)[nH]3)cc2)cc1)C(=O)O (centres unmarked) [Compound 155] | 0 (X < 0 Rank 0) | 0 (X < 0 Rank 0) | 2 (10 < X < 20 Rank 2) | –
6 | Cn1cnnc1SCc1cccc(CC(N)C(=O)O)n1 (centres unmarked) [Compound 156] | 1 (0 < X < 10 Rank 1) | 1 (0 < X < 10 Rank 1) | 2 (10 < X < 20 Rank 2) | –
7 | NC(Cc1cccc(CN2CCN(c3ncccn3)CC2)n1)C(=O)O (centres unmarked) [Compound 158] | 0 (X < 0 Rank 0) | 0 (X < 0 Rank 0) | 1 (0 < X < 10 Rank 1) | –
8 | NC(Cc1ccc(-c2ccc(CSc3ccc4ccccc4n3)cc2)cc1)C(=O)O (centres unmarked) [Compound 159] | 0 (X < 0 Rank 0) | 0 (X < 0 Rank 0) | 1 (0 < X < 10 Rank 1) | –
9 | NC(Cc1cccc(CN2CC=CCC2)n1)C(=O)O (centres unmarked) [Compound 160] | 0 (X < 0 Rank 0) | 0 (X < 0 Rank 0) | 1 (0 < X < 10 Rank 1) | –
10 | COc1ccc(-n2nnnc2SCc2cccc(C[C@H](N)C(=O)O)c2)cc1 [drawing 467] | – | – | – | 3 (3: Δ > 10%, significantly higher binding affinity than phenylalanine)
11 | N[C@@H](Cc1cccc(CSc2nnnn2-c2ccccc2)c1)C(=O)O [drawing 468] | – | – | – | 3 (3: Δ > 10%, significantly higher binding affinity than phenylalanine)
12 | N[C@@H](Cc1cccc(CSc2nc3ccccc3[nH]2)c1)C(=O)O [drawing 469] | – | – | – | 1 (1: −10 > Δ > −50%, lower binding affinity than phenylalanine)
13 | N[C@@H](Cc1cccc(CSc2nnc(-c3ccccc3)[nH]2)c1)C(=O)O [drawing 470] | – | – | – | 2 (2: 10% ≧ Δ ≧ −10% similar binding affinity to phenylalanine)
14 | N[C@@H](Cc1cccc(CSc2nc3ccccc3[nH]2)n1)C(=O)O [drawing 471] | – | – | – | 1 (1: −10 > Δ > −50%, lower binding affinity than phenylalanine)
15 | N[C@@H](Cc1cccc(CSc2ncnc3[nH]ncc23)n1)C(=O)O [drawing 472] | – | – | – | 0 (0: Δ ≦ −50%, no binding or very low binding affinity)
16 | N[C@@H](Cc1cccc(CS(=O)(=O)c2nc3ccccc3[nH]2)n1)C(=O)O [drawing 473] | – | – | – | 0 (0: Δ ≦ −50%, no binding or very low binding affinity)
17 | N[C@@H](Cc1cccc(CSc2nccc(O)n2)c1)C(=O)O [drawing 474] | – | – | – | 1 (1: −10 > Δ > −50%, lower binding affinity than phenylalanine)
18 | N[C@@H](Cc1cccc(C[S+]([O-])c2nnnn2-c2ccccc2)c1)C(=O)O (some centres unmarked) [drawing 475] | – | – | – | 3 (3: Δ > 10%, significantly higher binding affinity than phenylalanine)
19 | N[C@@H](Cc1cccc(CSc2nccc(C(F)(F)F)n2)n1)C(=O)O [drawing 476] | – | – | – | 1 (1: −10 > Δ > −50%, lower binding affinity than phenylalanine)
20 | N[C@@H](Cc1cccc(CSc2nc3ccc(Cl)cc3s2)n1)C(=O)O [drawing 477] | – | – | – | 1 (1: −10 > Δ > −50%, lower binding affinity than phenylalanine)
21 | N[C@@H](Cc1cccc(CS(=O)(=O)c2nc3ccccc3[nH]2)c1)C(=O)O [drawing 478] | – | – | – | 2 (2: 10% ≧ Δ ≧ −10% similar binding affinity to phenylalanine)
22 | N[C@@H](Cc1cccc(C[S+]([O-])c2nnnn2-c2ccccc2)n1)C(=O)O (some centres unmarked) [drawing 479] | – | – | – | 1 (1: −10 > Δ > −50%, lower binding affinity than phenylalanine)
23 | N[C@@H](Cc1cccc(CSc2nnnn2-c2ccc(O)cc2)c1)C(=O)O [drawing 480] | – | – | – | 3 (3: Δ > 10%, significantly higher binding affinity than phenylalanine)
24 | COc1ccc(-n2nnnc2[S+]([O-])Cc2cccc(C[C@H](N)C(=O)O)c2)cc1 (some centres unmarked) [drawing 481] | – | – | – | 3 (3: Δ > 10%, significantly higher binding affinity than phenylalanine)
25 | N[C@@H](Cc1cccc(C[S+]([O-])c2nnc(-c3ccccc3)[nH]2)c1)C(=O)O (some centres unmarked) [drawing 482] | – | – | – | 1 (1: −10 > Δ > −50%, lower binding affinity than phenylalanine)
26 | N[C@@H](Cc1cccc(CS(=O)(=O)c2ncc[nH]2)c1)C(=O)O [drawing 483] | – | – | – | 1 (1: −10 > Δ > −50%, lower binding affinity than phenylalanine)
27 | N[C@@H](Cc1cccc(CSc2nnc(-c3ccncc3)o2)c1)C(=O)O [drawing 484] | – | – | – | 2 (2: 10% ≧ Δ ≧ −10% similar binding affinity to phenylalanine)
28 | CN(C)CCn1nnnc1SCc1cccc(C[C@H](N)C(=O)O)c1 [drawing 485] | – | – | – | 1 (1: −10 > Δ > −50%, lower binding affinity than phenylalanine)
29 | N[C@@H](Cc1cccc(CSc2nnc(-c3ccncc3)[nH]2)c1)C(=O)O [drawing 486] | – | – | – | 2 (2: 10% ≧ Δ ≧ −10% similar binding affinity to phenylalanine)
